# Measurements from publication PMC10952342 (2023).
# How the values were obtained:
# [1] = tested on: c-Myc (DNA, G4) TGAGGGTGGGTAGGGTGGGTAA; assay: emission titration (580 nm); details: K+ 100 mM, lithium cacodylate pH 7.3
# [2] = tested on: HTG4 (DNA, G4) TTGGGTTAGGGTTAGGGTTAGGGA; assay: emission titration (580 nm); details: K+ 100 mM, lithium cacodylate pH 7.3
# [3] = tested on: HTelo (DNA, G4) AGGGTTAGGGTTAGGGTTAGGG; assay: emission titration (580 nm); details: lithium cacodylate pH 7.3
# [4] = tested on: c-Myc (DNA, G4) TGAGGGTGGGTAGGGTGGGTAA; assay: CD melting (265 nm); details: K+ 1 mM; 10 mM lithium cacodylate; 5 μM DNA, 10 μM compound
# [5] = tested on: HTelo (DNA, G4) AGGGTTAGGGTTAGGGTTAGGG; assay: CD melting (295 nm); details: Na+ 100 mM; 10 mM lithium cacodylate; 5 μM DNA, 10 μM compound
Ka [1],Ka [2],Ka ([3]; K+ 100 mM),Ka ([3]; Na+ 100 mM),ΔTm [4] [°C],ΔTm [5] [°C],Ka ([1]; 1 μM complex),Ka ([2]; 1 μM complex),"Ka ([3]; K+ 100 mM, 1 μM complex)","Ka ([3]; Na+ 100 mM, 1 μM complex)",SMILES
14.43 ± 7.18 x 10^5 M^-1,22.04 ± 9.23 x 10^5 M^-1,12.5 ± 0.30 x 10^5 M^-1,3.5 ± 1.01 x 10^5 M^-1,,,,,,,CN(C)CCOc1c[c-]c(-c2cccc(-c3ccccn3)n2)cc1.OCC[S-].[Pt+2]
17.61 ± 2.87 x 10^5 M^-1,14.89 ± 4.37 x 10^5 M^-1,10.45 ± 1.13 x 10^5 M^-1,6.22 ± 0.34 x 10^5 M^-1,30,3.6,,,,,CN(C)CCOc1c[c-]c(-c2cccc(-c3ccccn3)n2)cc1.[Cl-].[Pt+2]
15.04 ± 1.18 x 10^5 M^-1,16.35 ± 2.30 x 10^5 M^-1,4.85 ± 0.66 x 10^5 M^-1,4.5 ± 1.54 x 10^5 M^-1,,,,,,,OCC[S-].[Pt+2].[c-]1cc(OCCN2CCCCC2)ccc1-c1cccc(-c2ccccn2)n1
6.09 ± 0.91 x 10^5 M^-1,4.45 ± 0.58 x 10^5 M^-1,3.92 ± 0.13 x 10^5 M^-1,1.46 ± 0.05 x 10^5 M^-1,,,,,,,OCC[S-].[Pt+2].[c-]1cc(OCCN2CCOCC2)ccc1-c1cccc(-c2ccccn2)n1
,,,,28.3,2.8,21.65 ± 0.64 x 10^5 M^-1,19.18 ± 3.60 x 10^5 M^-1,11.77 ± 1.69 x 10^5 M^-1,5.06 ± 0.59 x 10^5 M^-1,[Cl-].[Pt+2].[c-]1cc(OCCN2CCCCC2)ccc1-c1cccc(-c2ccccn2)n1
13.68 ± 1.56 x 10^5 M^-1,3.55 ± 0.92 x 10^5 M^-1,2.95 ± 0.34 x 10^5 M^-1,1.47 ± 0.08 x 10^5 M^-1,,,,,,,[Cl-].[Pt+2].[c-]1cc(OCCN2CCOCC2)ccc1-c1cccc(-c2ccccn2)n1
